Test results reported in patent US20060205637A1, “Fluoro-alkyl-cyclopeptide derivatives having anti-integrin activity” (Sigma-Tau Industrie Farmaceutiche Riunite S.p.A., priority 2002, published 2006).
Where two headings read alike, the source gives them in different places.

How the values were obtained:
[1] = system: bovine microvascular endothelial cells (BMEC)
Description: Microvascular endothelial cells from bovine adrenal glands (bovine microvascular endothelial cells—BMEC) were isolated from animals that had just been sacrificed and were stored in ice up to their arrival in the laboratory. In sterile conditions, the glands were washed in a solution of betadine for 5 minutes and then in 2 liters of sterile PBS. The glands were then cut with a disposable sterile lancet into fragments of approximately 2 mm and transferred to polystyrene Falcon tubes containing PBS (30 ml per gland). After centrifuging at 600 rpm in a centrifuge cooled to +4° C., the supernatant was decanted. The pellet was resuspended 1:2 with a 0.12% solution of collagenase A (Boehringer Mannheim) and incubated at 37° C. for 2 hours under stirring. After subsequent filtration on filters (Sigma), first of 200, and then 100 mesh, the supernatant was added to a solution of DMEM containing 15% FBS to inhibit the action of the collagenase A. The solution was centrifuged at 1000 rpm at room temperature and the precipitate resuspended in DMEM medium containing 20% FBS, 50 μg/ml of bovine brain extract (BBE), 50 μg/ml of heparin (Sigma), 0.5% v/v gentamicin (Sigma), and 1% v/v L-glutamine. The cells were seeded on Petri dishes gelatinised with 1% gelatin (Sigma porcine gelatin). At confluence, the cells were characterised with endothelial markers as Factor VIII.

[2] = system: Human melanoma MeWo cells; assay: Cell adhesion assay on vitronectin, MeWo; format: cell-based; conditions: inhibition of cell adhesion to human vitronectin, 0.1 to 100 μM; read-out: MeWo IC50 ± SD
Description: Human melanoma MeWo cells from the American Type Culture Collection (ATCC) were kept in culture in complete Eagle Minimal Essential Medium (EMEM) containing 10% FCS, 2 mM L-glutamine and 50 μg/ml gentamicin.
(§1) 96-well plates were pretreated with 5 μg/ml of human vitronectin (Cal-biochem) for 12 hours at +4° C. BMEC or MeWo cells were detached with trypsin-EDTA, counted and plated on vitronectin substrate. The molecules were assayed at scalar concentrations ranging from 0.1 to 100 μM and co-incubated with the cells left to adhere. […] The adhereing cells were fixed with a 4% paraformaldehyde solution for 10 minutes at room temperature. The cells were then stained with a 1% toluidine blue solution for 10 minutes at room temperature. After staining, the cells were washed in double-distilled water, dried and solubilised with a 1% SDS solution. The cells were then quantified by means of absorbance reading on a Victor multilabel plate counter (Wal-lac) at 600 nm.
(§2) The evaluation parameter for the activity of the molecules was the value IC50±SD (μM).

integrin αvβ5 = molecular target: T1, integrin αvβ5 (Homo sapiens, UniProt P06756+P18084); assay: Binding to integrin αvβ5 receptors ((125I) Echistatin displacement); conditions: for IC50: 0.05 nM (125I) Echistatin, plate coated with 1 μg/ml integrin, read-out: αvβ5 IC50 ± SD
T1 construct: purchased Chemicon CC1022
T1 sequence (P06756 31-889 limits assumed): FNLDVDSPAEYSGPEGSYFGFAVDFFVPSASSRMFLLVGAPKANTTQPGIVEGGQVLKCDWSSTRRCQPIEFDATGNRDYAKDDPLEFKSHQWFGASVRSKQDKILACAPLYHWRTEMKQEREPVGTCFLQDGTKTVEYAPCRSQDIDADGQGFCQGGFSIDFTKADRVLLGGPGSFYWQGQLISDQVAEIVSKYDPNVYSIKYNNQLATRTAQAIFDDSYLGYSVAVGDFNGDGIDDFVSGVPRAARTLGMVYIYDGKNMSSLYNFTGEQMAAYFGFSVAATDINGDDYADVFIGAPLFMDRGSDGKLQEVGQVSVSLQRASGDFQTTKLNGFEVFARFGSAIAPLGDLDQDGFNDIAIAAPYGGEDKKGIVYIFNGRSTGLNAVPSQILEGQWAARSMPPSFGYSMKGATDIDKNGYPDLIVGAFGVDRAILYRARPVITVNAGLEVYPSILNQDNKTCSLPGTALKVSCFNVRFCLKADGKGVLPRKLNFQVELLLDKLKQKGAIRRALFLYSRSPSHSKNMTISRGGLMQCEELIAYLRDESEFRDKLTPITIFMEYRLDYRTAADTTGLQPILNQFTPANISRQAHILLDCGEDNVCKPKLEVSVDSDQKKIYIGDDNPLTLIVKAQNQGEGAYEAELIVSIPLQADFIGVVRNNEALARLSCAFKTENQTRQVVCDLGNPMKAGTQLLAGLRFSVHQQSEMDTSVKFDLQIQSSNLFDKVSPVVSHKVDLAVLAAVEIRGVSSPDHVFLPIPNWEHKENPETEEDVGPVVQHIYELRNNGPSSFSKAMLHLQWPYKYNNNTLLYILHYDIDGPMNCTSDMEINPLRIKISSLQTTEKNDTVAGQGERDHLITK
T1 sequence (P06756 891-1048 partner limits assumed): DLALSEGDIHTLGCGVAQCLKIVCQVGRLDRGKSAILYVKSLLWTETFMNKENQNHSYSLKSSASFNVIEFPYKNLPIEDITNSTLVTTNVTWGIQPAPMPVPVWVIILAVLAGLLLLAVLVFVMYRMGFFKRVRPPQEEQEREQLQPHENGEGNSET
T1 sequence (P18084 24-799): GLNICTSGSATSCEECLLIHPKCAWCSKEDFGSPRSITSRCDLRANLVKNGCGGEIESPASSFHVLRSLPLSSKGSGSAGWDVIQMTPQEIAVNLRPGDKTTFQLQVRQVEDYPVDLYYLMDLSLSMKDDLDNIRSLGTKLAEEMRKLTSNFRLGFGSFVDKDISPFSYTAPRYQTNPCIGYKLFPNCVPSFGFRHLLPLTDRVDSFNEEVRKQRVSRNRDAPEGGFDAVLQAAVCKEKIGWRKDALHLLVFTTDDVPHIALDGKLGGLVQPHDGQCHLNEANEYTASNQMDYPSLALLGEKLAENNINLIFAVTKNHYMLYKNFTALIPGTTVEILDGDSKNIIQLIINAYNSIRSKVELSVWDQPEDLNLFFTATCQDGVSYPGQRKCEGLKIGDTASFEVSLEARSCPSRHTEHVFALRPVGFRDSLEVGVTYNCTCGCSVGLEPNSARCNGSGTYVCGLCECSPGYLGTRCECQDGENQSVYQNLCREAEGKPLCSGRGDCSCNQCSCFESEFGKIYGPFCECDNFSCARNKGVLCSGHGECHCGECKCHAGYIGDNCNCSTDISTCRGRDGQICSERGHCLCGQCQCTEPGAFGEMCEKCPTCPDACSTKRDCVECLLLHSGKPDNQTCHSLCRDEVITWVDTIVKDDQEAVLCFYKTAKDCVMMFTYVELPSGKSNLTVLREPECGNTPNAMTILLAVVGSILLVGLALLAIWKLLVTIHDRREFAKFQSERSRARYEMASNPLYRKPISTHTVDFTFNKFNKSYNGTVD
Description: On the next day, the wells were washed and incubation was performed with 0.05 nM of(^125I) Echistatin (Amersham, cat. IM304) in the absence or presence of compounds according to the invention. The process then proceeded as described in the previous case.
(§3) The affinity of the compounds according to the present invention for vitronectin receptors was expressed as the IC50±SD value (nM) which is a parameter elaborated using “ALLFIT” software.

integrin αvβ3 = molecular target: T2, integrin αvβ3 (Homo sapiens, UniProt P05106+P06756); assay: Binding to integrin αvβ3 receptors ((125I) Echistatin displacement); conditions: for IC50: 0.05 nM (125I) Echistatin, 3-hour incubation, plate coated with 0.5 μg/ml integrin, read-out: αvβ3 IC50 ± SD
T2 construct: purchased Chemicon CC1020
T2 sequence (P06756 31-889 limits assumed): as the sequence (P06756 31-889 limits assumed) above
T2 sequence (P06756 891-1048 partner limits assumed): as the sequence (P06756 891-1048 partner limits assumed) above
T2 sequence (P05106 27-788): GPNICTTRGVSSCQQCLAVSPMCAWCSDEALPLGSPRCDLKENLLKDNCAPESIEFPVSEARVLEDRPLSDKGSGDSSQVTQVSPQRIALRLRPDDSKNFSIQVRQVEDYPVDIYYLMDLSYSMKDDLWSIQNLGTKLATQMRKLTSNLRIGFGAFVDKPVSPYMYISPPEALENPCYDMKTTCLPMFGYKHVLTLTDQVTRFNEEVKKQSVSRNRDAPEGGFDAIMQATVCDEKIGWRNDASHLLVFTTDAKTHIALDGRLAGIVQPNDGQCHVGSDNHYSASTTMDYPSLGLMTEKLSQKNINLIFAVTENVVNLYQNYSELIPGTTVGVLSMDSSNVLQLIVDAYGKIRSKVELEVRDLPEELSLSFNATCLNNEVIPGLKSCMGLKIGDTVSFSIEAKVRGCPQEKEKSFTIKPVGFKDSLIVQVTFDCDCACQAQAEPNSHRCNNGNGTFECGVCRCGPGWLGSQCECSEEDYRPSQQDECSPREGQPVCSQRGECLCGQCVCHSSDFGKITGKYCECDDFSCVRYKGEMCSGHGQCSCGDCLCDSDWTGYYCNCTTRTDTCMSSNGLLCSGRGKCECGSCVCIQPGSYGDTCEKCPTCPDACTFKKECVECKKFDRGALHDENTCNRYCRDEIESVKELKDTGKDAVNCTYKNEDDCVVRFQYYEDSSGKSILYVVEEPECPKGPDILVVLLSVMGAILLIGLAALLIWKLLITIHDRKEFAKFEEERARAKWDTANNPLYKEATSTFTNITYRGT
Description: 96-well plates were subjected overnight to coating with 0.5 μg/ml of integrin αvβ3 (Chemicon, cat. CC1020). On the next day, the wells were washed and incubation was performed with 0.05 nM of (^125I) Echistatin (Amersham, cat. IM304) in the absence or presence of compounds according to the invention. After a 3-hour incubation and a series of washings, the integrin from each well bound to the radioactive substance was solubilised with NaOH 2N, and the radioactivity was then measured using a gamma counter. Non-specific binding, to be subtracted from all samples, was determined in the presence of Echistatin 1 μM.
as §3

[3] = system: SK-LMS-1 human leiomyosarcoma cells; assay: Cell adhesion assay on vitronectin, SK-LMS-1; format: cell-based; conditions: inhibition of cell adhesion to human vitronectin, 0.1 to 100 μM; read-out: SK-LMS1 IC50 ± SD
Description: SK-LMS-1 human leiomyosarcoma cells (ATCC) were grown in EMEM supplemented with 10% FCS, 2 mM L-glutamine and 50 μg/ml gentamicin.
as §1, §2

| Compound | IC50 [1] | IC50 [2] | IC50 (integrin αvβ5) | IC50 (integrin αvβ3) | other results |
| --- | --- | --- | --- | --- | --- |
| N=C(N)NCCC[C@@H]1NC(=O)C(Cc2ccccc2)(C(F)(F)F)NC(=O)[C@@H](Cc2ccccc2)NC(=O)[C@H](CC(=O)O)NC(=O)CNC1=O (single isomer, unassigned) [ST1930, C(Arg-Gly-Asp-D-Phe-(R or S)-Tfm-Phe)] | 8.9 ± 0.4 µM | 6.9 ± 1.3 µM | – | – | – |
| CC(C)[C@@H]1NC(=O)[C@@H](Cc2ccccc2)NC(=O)C(CC(=O)O)(C(F)(F)F)NC(=O)CNC(=O)[C@H](CCCNC(=N)N)NC1=O (single isomer, unassigned) [ST2189, c(Arg-Gly-(R or S)-Tfm-Asp-D-Phe-Val)] | – | – | > 10000 nM | > 10000 nM | – |
| CC(C)[C@@H]1NC(=O)[C@@H](Cc2ccccc2)NC(=O)C(CC(=O)O)(C(F)(F)F)NC(=O)CNC(=O)[C@H](CCCNC(=N)N)NC1=O (single isomer, unassigned) [ST2190, c(Arg-Gly-(R or S)-Tfm-Asp-D-Phe-Val)] | – | – | > 10000 nM | > 10000 nM | – |
| CC(C)[C@@H]1NC(=O)C(Cc2ccccc2)(C(F)(F)F)NC(=O)[C@H](CC(=O)O)NC(=O)CNC(=O)[C@H](CCCNC(=N)N)NC1=O (single isomer, unassigned) [ST2191, c(Arg-Gly-Asp-(R o S)-Tfm-Phe-Val)] | 18.8 ± 4.4 µM | 21.9 ± 2.5 µM | 10 ± 1.9 nM | 237 ± 64 nM | – |
| CC(C)[C@@H]1NC(=O)C(Cc2ccccc2)(C(F)(F)F)NC(=O)[C@H](CC(=O)O)NC(=O)CNC(=O)[C@H](CCCNC(=N)N)NC1=O (single isomer, unassigned) [ST2192, c(Arg-Gly-Asp-(R o S)-Tfm-Phe-Val)] | > 100 µM | – | 72.7 ± 3.8 nM | 1020 ± 348 nM | – |
| CC(C)C1(C(F)(F)F)NC(=O)[C@@H](Cc2ccccc2)NC(=O)[C@H](CC(=O)O)NC(=O)CNC(=O)[C@H](CCCNC(=N)N)NC1=O (single isomer, unassigned) [ST2409, c(Arg-Gly-Asp-D-Phe-(R or S)-Tfm-Val)] | 12.5 ± 1.5 µM | – | – | – | IC50 [3]: 15.9 ± 1.6 µM |
| CC(C)C1(C(F)(F)F)NC(=O)[C@@H](Cc2ccccc2)NC(=O)[C@H](CC(=O)O)NC(=O)CNC(=O)[C@H](CCCNC(=N)N)NC1=O (single isomer, unassigned) [ST2410, c(Arg-Gly-Asp-D-Phe-(R or S)-Tfm-Val)] | 77.6 ± 7.2 µM | – | – | – | IC50 [3]: > 100 µM |
| CN1C(=O)[C@@H](Cc2ccccc2)NC(=O)[C@H](CC(=O)O)NC(=O)CNC(=O)[C@H](CCCNC(=N)N)NC(=O)C1(Cc1ccccc1)C(F)(F)F (single isomer, unassigned) [ST2552, c(Arg-Gly-Asp-D-Phe-(R or S)—N-Me-Tfm-Phe)] | > 100 µM | 0.33 ± 0.05 µM | – | – | binding affinity for vitronectine receptor αvβ5 (in words) (integrin αvβ5): high binding affinity; binding affinity for vitronectine receptor αvβ3 (in words) (integrin αvβ3): high binding affinity |
| c(Arg-Gly-Asp-D-Phe-(R,S)-Dfm-Phe) [ST1932] | – | 13.9 ± 4.3 µM | 5.5 ± 0.8 nM | 332 ± 101 nM | IC50 ([1]; read-out: BMEC IC50 ± SD, inhibition of cell adhesion to human vitronectin, 0.1 to 100 μM): 14.2 ± 1 µM |
